Calls of active or inactive are those of the source. No cut-off for these calls is given here. Positions of bridges follow the written chain, without caps; N, C: chain ends. Residues, ends and D or L forms follow the SMILES beside them.

From ChEMBL document CHEMBL5055636, “Design, Optimization, and Structural Characterization of an Apoptosis-Inducing Factor Peptide Targeting Human Cyclophilin A to Inhibit Apoptosis Inducing Factor-Mediated Cell Death” (J Med Chem, 2021) come the findings set out here.

Data set [1] concerns the target Peptidyl-prolyl cis-trans isomerase A (Homo sapiens, UniProt P62937). Description: Binding affinity to His6-tagged CypA (unknown origin) expressed in Escherichia coli BL21 (DE3) incubation at 1 hr by multimode plate reader.
Data set [2] can be described thus: Stability of the compound in human serum assessed as half life after 12 hrs by RP-HPLC analysis. In kind it is ADME, cell-free.
Data set [3] is described as follows: Stability of the compound in human serum after 6 hrs by RP-HPLC analysis. The data set is classed as ADME, cell-free.
The nature of data set [4]: Cytotoxicity against mouse HT-22 cells assessed as cell viability at 50 uM measured after 24 hrs by MTT assay. The data set is classed as cell-based. The conditions noted are these: read-out: Activity. In general terms: Tetrazolium dyes change colour on reduction, which living cells bring about.
Data set [5] is described as follows: Stability of the compound in human serum assessed as compound remaining after 12 hrs by RP-HPLC analysis. The data set is classed as ADME, cell-free. The conditions noted are these: read-out: Stability.
The test system of another data set is HT-22. Description: Neuroprotective activity against […]-induced toxicity in mouse HT-22 cells assessed as increase in survival at 50 uM preincubated for 24 hrs followed by […] and measured after 16 hrs by MTT assay. In kind it is functional. The conditions noted are these: time 40 hrs.
The nature of data set [6]: Stability of the compound in human serum after 2 hrs by RP-HPLC analysis. In kind it is ADME, cell-free.

For the compound `CC[C@H](C)[C@@H]1NC(=O)[C@H](CC(C)C)NC(=O)[C@@H](NC(C)=O)CSSC[C@@H](C(N)=O)NC(=O)[C@H](CCC(=O)O)NC(=O)[C@H](C)NC(=O)[C@H](CCCCN)NC(=O)[C@H](CCCNC(=N)N)NC(=O)CNC(=O)[C@H](CC(=O)O)NC(=O)[C@H](CCCCN)NC(=O)[C@H](CC(C)C)NC(=O)[C@H](CCCCN)NC1=O` (Ac-CLIKLKDGRKAEC-NH2; disulfide 1-13), the outcome in data set [1] was Active. Same read-out and setting: as for `CC[C@H](C)[C@@H]1NC(=O)[C@H](CC(C)C)NC(=O)[C@@H](NC(C)=O)CSSC[C@@H](C(N)=O)NC(=O)[C@H](CCC(=O)O)NC(=O)[C@H](C(C)C)NC(=O)[C@H](CCCCN)NC(=O)[C@H](CCCNC(=N)N)NC(=O)CNC(=O)[C@H](CC(=O)O)NC(=O)[C@H](CCCCN)NC(=O)[C@H](CC(C)C)NC(=O)[C@H](C)NC1=O` (Ac-CLIALKDGRKVEC-NH2; disulfide 1-13), the entry is “inactive”; as for `CC[C@H](C)[C@@H]1NC(=O)[C@H](CC(C)C)NC(=O)[C@@H](NC(C)=O)CSSC[C@@H](C(N)=O)NC(=O)[C@H](CCC(=O)O)NC(=O)[C@H](C(C)C)NC(=O)[C@H](C)NC(=O)[C@H](CCCNC(=N)N)NC(=O)CNC(=O)[C@H](CC(=O)O)NC(=O)[C@H](CCCCN)NC(=O)[C@H](CC(C)C)NC(=O)[C@H](CCCCN)NC1=O` (Ac-CLIKLKDGRAVEC-NH2; disulfide 1-13), “inactive”.

With `CC[C@H](C)[C@@H]1NC(=O)[C@H](CC(C)C)NC(=O)[C@@H](NC(C)=O)CSSC[C@@H](C(N)=O)NC(=O)[C@H](CCC(=O)O)NC(=O)[C@H](C(C)C)NC(=O)[C@H](CCCCN)NC(=O)[C@H](C)NC(=O)CNC(=O)[C@H](CC(=O)O)NC(=O)[C@H](CCCCN)NC(=O)[C@H](CC(C)C)NC(=O)[C@H](CCCCN)NC1=O` (Ac-CLIKLKDGAKVEC-NH2; disulfide 1-13), in data set [1], the result was inactive.

Consider `CC[C@H](C)[C@H](NC(=O)[C@H](Cc1cnc[nH]1)NC(=O)[C@H](CC(=O)O)NC(=O)[C@@H](NC(=O)[C@H](CCC(=O)O)NC(=O)[C@@H](NC(=O)[C@H](CCCCN)NC(=O)[C@H](CCCNC(=N)N)NC(=O)CNC(=O)[C@H](CC(=O)O)NC(=O)[C@H](CCCCN)NC(=O)[C@H](CC(C)C)NC(=O)[C@H](CCCCN)NC(=O)[C@@H](NC(=O)[C@H](CC(C)C)NC(=O)[C@H](CC(C)C)NC(=O)[C@H](CCCCN)NC(=O)CNC(=O)[C@H](CO)NC(=O)[C@H](CO)NC(=O)[C@@H](NC(=O)CNC(=O)[C@@H](NC(=O)[C@H](CO)NC(=O)[C@@H](N)CCC(N)=O)C(C)C)C(C)C)[C@@H](C)CC)C(C)C)[C@@H](C)O)C(=O)O`, for which, in data set [2], the half-life (as a rule, how long it takes for the measured level to halve) was 4 h. The Stability result in data set [3] is recorded as “Unstable”. In addition, in data set [4], the viability at 24 h, 50 µM is greater than 90%. Turning to `CC[C@H](C)[C@@H]1NC(=O)[C@H](CC(C)C)NC(=O)[C@@H](NC(C)=O)CSSC[C@@H](C(N)=O)NC(=O)[C@H](CCC(=O)O)NC(=O)[C@H](C(C)C)NC(=O)[C@H](CCCCN)NC(=O)[C@H](CCCNC(=N)N)NC(=O)CNC(=O)[C@H](CC(=O)O)NC(=O)[C@H](CCCCN)NC(=O)[C@H](C)NC(=O)[C@H](CCCCN)NC1=O` (Ac-CLIKAKDGRKVEC-NH2; disulfide 1-13), the result in data set [1] was Active. On the same count and under the same terms, with `CC[C@H](C)[C@@H]1NC(=O)[C@H](CC(C)C)NC(=O)[C@@H](NC(C)=O)CSSC[C@@H](C(N)=O)NC(=O)[C@H](CCC(=O)O)NC(=O)[C@H](C(C)C)NC(=O)[C@H](CCCCN)NC(=O)[C@H](CCCNC(=N)N)NC(=O)CNC(=O)[C@H](CC(=O)O)NC(=O)[C@H](C)NC(=O)[C@H](CC(C)C)NC(=O)[C@H](CCCCN)NC1=O` (Ac-CLIKLADGRKVEC-NH2; disulfide 1-13) the entry was “inactive”.

Regarding `CC[C@H](C)[C@@H]1NC(=O)[C@@H](NC(C)=O)CSSC[C@@H](C(N)=O)NC(=O)[C@H](C(C)C)NC(=O)[C@H](CCCCN)NC(=O)[C@H](CCCNC(=N)N)NC(=O)CNC(=O)[C@H](CC(=O)O)NC(=O)[C@H](CCCCN)NC(=O)[C@H](CC(C)C)NC(=O)[C@H](CCCCN)NC1=O` (Ac-CIKLKDGRKVC-NH2; disulfide 1-11), the remaining at 12 h in data set [5] is 75%. Besides, the Activity in the data set with HT-22 is recorded as 10%. The Stability entry in data set [6] was “Unstable”. In addition, the viability at 24 h, 50 µM in data set [4] is greater than 90%. The Kd – broadly, a measure of binding affinity in units of concentration – in data set [1] came to 2.4 µM. In turn, `CC[C@H](C)[C@H](NC(=O)[C@H](CC(C)C)NC(=O)[C@H](CS)NC(C)=O)C(=O)N[C@@H](CCCCN)C(=O)N[C@@H](CC(C)C)C(=O)N[C@@H](CCCCN)C(=O)N[C@@H](CC(=O)O)C(=O)NCC(=O)N[C@@H](CCCNC(=N)N)C(=O)N[C@@H](CCCCN)C(=O)N[C@H](C(=O)N[C@@H](CCC(=O)O)C(=O)N[C@@H](CS)C(N)=O)C(C)C` (Ac-CLIKLKDGRKVEC-NH2) came in with a Kd in data set [1] of 30 µM. Same read-out and setting: as for `CC[C@H](C)[C@@H]1NC(=O)[C@H](CC(C)C)NC(=O)[C@@H](NC(C)=O)CSSC[C@@H](C(N)=O)NC(=O)[C@H](CCC(=O)O)NC(=O)[C@H](C(C)C)NC(=O)[C@H](CCCCN)NC(=O)[C@H](CCCNC(=N)N)NC(=O)CNC(=O)[C@H](CC(=O)O)NC(=O)[C@H](CCCCN)NC(=O)[C@H](CC(C)C)NC(=O)[C@H](CCCCN)NC1=O` (Ac-CLIKLKDGRKVEC-NH2; disulfide 1-13), the figure is 3.2 µM. On to `CC[C@H](C)[C@@H]1NC(=O)[C@H](C)NC(=O)[C@@H](NC(C)=O)CSSC[C@@H](C(N)=O)NC(=O)[C@H](CCC(=O)O)NC(=O)[C@H](C(C)C)NC(=O)[C@H](CCCCN)NC(=O)[C@H](CCCNC(=N)N)NC(=O)CNC(=O)[C@H](CC(=O)O)NC(=O)[C@H](CCCCN)NC(=O)[C@H](CC(C)C)NC(=O)[C@H](CCCCN)NC1=O` (Ac-CAIKLKDGRKVEC-NH2; disulfide 1-13), for which, in data set [1], the result was Active. Still for that read-out and setting: as for `CC(=O)N[C@H]1CSSC[C@@H](C(N)=O)NC(=O)[C@H](CCC(=O)O)NC(=O)[C@H](C(C)C)NC(=O)[C@H](CCCCN)NC(=O)[C@H](CCCNC(=N)N)NC(=O)CNC(=O)[C@H](CC(=O)O)NC(=O)[C@H](CCCCN)NC(=O)[C@H](CC(C)C)NC(=O)[C@H](CCCCN)NC(=O)[C@H](C)NC(=O)[C@H](CC(C)C)NC1=O` (Ac-CLAKLKDGRKVEC-NH2; disulfide 1-13), the entry is “Active”.
